Laboratory results as given in patent US20240043427A1 (Gilead Sciences, Inc., priority 2020, published 2024).

Columns and labels:
CD73 [1] = biological target: T1, CD73 (Homo sapiens (Human), UniProt P21589); test: MDA-MB-231 Cell Based CD73 Activity Assay (DMEM); settings: MDA-MB-231-GFP cells, DMEM medium with 10% human plasma, 200 uM AMP
CD73 [2] = biological target: T1, CD73; type: biochemical; settings: 1 mM NaH2PO4 in enzyme buffer, CD73 0.3 nM, AMP 15 uM

T1 sequence (P21589 27-574): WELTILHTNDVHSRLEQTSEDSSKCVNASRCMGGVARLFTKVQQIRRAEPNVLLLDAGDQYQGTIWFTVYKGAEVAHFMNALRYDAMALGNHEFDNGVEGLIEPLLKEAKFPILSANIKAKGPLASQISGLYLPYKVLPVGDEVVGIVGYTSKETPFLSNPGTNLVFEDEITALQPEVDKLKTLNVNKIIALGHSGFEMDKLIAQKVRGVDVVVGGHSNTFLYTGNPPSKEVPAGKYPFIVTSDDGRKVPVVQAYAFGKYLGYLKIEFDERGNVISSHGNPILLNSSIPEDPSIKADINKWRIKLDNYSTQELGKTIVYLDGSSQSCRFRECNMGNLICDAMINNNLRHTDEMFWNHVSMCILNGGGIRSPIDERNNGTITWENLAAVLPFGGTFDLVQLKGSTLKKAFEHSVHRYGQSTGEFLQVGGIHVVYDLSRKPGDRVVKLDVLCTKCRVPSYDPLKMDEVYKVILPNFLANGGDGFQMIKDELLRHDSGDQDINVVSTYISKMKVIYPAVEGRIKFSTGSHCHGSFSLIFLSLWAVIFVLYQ

CC1(C)CN(c2cc(-c3c[nH]c(=O)[nH]c3=O)nn3cc(C4CC4)nc23)CC1(F)F [Example 145, 5-(2-cyclopropyl-8-(3,3-difluoro-4,4-dimethylpyrrolidin-1-yl)imidazo[1,2-b]pyridazin-6-yl)pyrimidine-2,4(1H,3H)-dione]
EC50 (CD73 [1]): 41.7 nM | IC50 (CD73 [2]): 20.5 nM

O=c1[nH]cc(-c2cc([C@H]3C[C@@H]3c3ccc(F)cc3F)c3nc(C4CC4)cn3n2)c(=O)[nH]1 [Example 146, 5-(2-cyclopropyl-8-((1S,2S)-2-(2,4-difluorophenyl)cyclopropyl)imidazo[1,2-b]pyridazin-6-yl)pyrimidine-2,4(1H,3H)-dione]
EC50 (CD73 [1]): 46.7 nM | IC50 (CD73 [2]): 6.12 nM

O=c1[nH]cc(-c2cc(N3CC(F)C4(CC4)C3)n3nccc3n2)c(=O)[nH]1 (centres unmarked) [Example 147, 5-(7-(7-fluoro-5-azaspiro[2.4]heptan-5-yl)pyrazolo[1,5-a]pyrimidin-5-yl)pyrimidine-2,4(1H,3H)-dione]
EC50 (CD73 [1]): 96.1 nM | IC50 (CD73 [2]): 39 nM

O=c1[nH]cc(-c2cc(N3CC(F)C4(CC4)C3)c3ncc(F)n3n2)c(=O)[nH]1 (centres unmarked) [Example 148, 5-(3-fluoro-8-(7-fluoro-5-azaspiro[2.4]heptan-5-yl)imidazo[1,2-b]pyridazin-6-yl)pyrimidine-2,4(1H,3H)-dione]
EC50 (CD73 [1]): 17.9 nM | IC50 (CD73 [2]): 8 nM

O=c1[nH]cc(-c2cc([C@H]3C[C@@H]3c3ccc(C(F)(F)F)cn3)c3nccn3n2)c(=O)[nH]1 [Example 150, 5-(8-((1S,2S)-2-(5-(trifluoromethyl)pyridin-2-yl)cyclopropyl)imidazo[1,2-b]pyridazin-6-yl)pyrimidine-2,4(1H,3H)-dione]
EC50 (CD73 [1]): 4.79 nM | IC50 (CD73 [2]): 1.93 nM

O=c1[nH]cc(-c2cc([C@H]3C[C@@H]3c3ccc(C(F)(F)F)nc3)c3nccn3n2)c(=O)[nH]1 [Example 153, 5-(8-((1S,2S)-2-(6-(trifluoromethyl)pyridin-3-yl)cyclopropyl)imidazo[1,2-b]pyridazin-6-yl)pyrimidine-2,4(1H,3H)-dione]
EC50 (CD73 [1]): 8.85 nM | IC50 (CD73 [2]): 2.3 nM

N#Cc1ccc([C@H]2C[C@@H]2c2cc(-c3c[nH]c(=O)[nH]c3=O)nn3c(F)cnc23)cc1 [Example 158, 4-((1S,2S)-2-(6-(2,4-dioxo-1,2,3,4-tetrahydropyrimidin-5-yl)-3-fluoroimidazo[1,2-b]pyridazin-8-yl)cyclopropyl)benzonitrile]
EC50 (CD73 [1]): 2.52 nM | IC50 (CD73 [2]): 0.55 nM

O=c1[nH]cc(-c2cc([C@H]3C[C@@H]3c3ccccn3)c3nccn3n2)c(=O)[nH]1 [Example 159, 5-(8-((1S,2S)-2-(pyridin-2-yl)cyclopropyl)imidazo[1,2-b]pyridazin-6-yl)pyrimidine-2,4(1H,3H)-dione]
EC50 (CD73 [1]): 2.62 nM | IC50 (CD73 [2]): 1.76 nM

O=c1[nH]cc(-c2cc([C@H]3C[C@@H]3c3cccnc3)c3nccn3n2)c(=O)[nH]1 [Example 162, 5-(8-((1S,2S)-2-(pyridin-3-yl)cyclopropyl)imidazo[1,2-b]pyridazin-6-yl)pyrimidine-2,4(1H,3H)-dione]
EC50 (CD73 [1]): 4.41 nM | IC50 (CD73 [2]): 1.64 nM

O=c1[nH]cc(-c2cc(N3CCC(F)(C(F)(F)F)C3)c3nccn3n2)c(=O)[nH]1 (centres unmarked) [Example 169, 5-(8-(3-fluoro-3-(trifluoromethyl)pyrrolidin-1-yl)imidazo[1,2-b]pyridazin-6-yl)pyrimidine-2,4(1H,3H)-dione]
EC50 (CD73 [1]): 189 nM | IC50 (CD73 [2]): 73.9 nM

O=c1[nH]cc(-c2cc(N3CC(C(F)F)C4(CC4)C3)c3nccn3n2)c(=O)[nH]1 (centres unmarked) [Example 170, 5-(8-(7-(difluoromethyl)-5-azaspiro[2.4]heptan-5-yl)imidazo[1,2-b]pyridazin-6-yl)pyrimidine-2,4(1H,3H)-dione]
EC50 (CD73 [1]): 136 nM | IC50 (CD73 [2]): 35.4 nM

O=c1[nH]cc(-c2cc(N3CC(F)C4(CC4)C3)c3nccn3n2)c(=O)[nH]1 (centres unmarked) [Example 171, 5-(8-(7-fluoro-5-azaspiro[2.4]heptan-5-yl)imidazo[1,2-b]pyridazin-6-yl)pyrimidine-2,4(1H,3H)-dione]
EC50 (CD73 [1]): 14.1 nM | IC50 (CD73 [2]): 3.17 nM

COc1ccc(C2CCN(c3cc(-c4c[nH]c(=O)[nH]c4=O)nn4ccnc34)C2)cc1 (centres unmarked) [Example 173, 5-(8-(3-(4-methoxyphenyl)pyrrolidin-1-yl)imidazo[1,2-b]pyridazin-6-yl)pyrimidine-2,4(1H,3H)-dione]
EC50 (CD73 [1]): 88.2 nM | IC50 (CD73 [2]): 3.59 nM

CC(C)[C@@H]1CCN(c2cc(-c3c[nH]c(=O)[nH]c3=O)nn3ccnc23)C1 [Example 174, (S)-5-(8-(3-isopropylpyrrolidin-1-yl)imidazo[1,2-b]pyridazin-6-yl)pyrimidine-2,4(1H,3H)-dione]
EC50 (CD73 [1]): 214 nM | IC50 (CD73 [2]): 69 nM

O=c1[nH]cc(-c2cc(N3CC[C@@H](C(F)(F)F)C3)c3nccn3n2)c(=O)[nH]1 [Example 175, (R)-5-(8-(3-(trifluoromethyl)pyrrolidin-1-yl)imidazo[1,2-b]pyridazin-6-yl)pyrimidine-2,4(1H,3H)-dione]
EC50 (CD73 [1]): 23.1 nM | IC50 (CD73 [2]): 3.6 nM

O=c1[nH]cc(-c2cc(N3CCC(F)(F)C3)c3ncc(F)n3n2)c(=O)[nH]1 [Example 176, 5-(8-(3,3-difluoropyrrolidin-1-yl)-3-fluoroimidazo[1,2-b]pyridazin-6-yl)pyrimidine-2,4(1H,3H)-dione]
EC50 (CD73 [1]): 59.5 nM | IC50 (CD73 [2]): 11 nM

O=c1[nH]cc(-c2cc(N3C[C@@H](F)[C@@H](F)C3)c3ncc(F)n3n2)c(=O)[nH]1 [Example 177, 5-(8-((3R,4S)-3,4-difluoropyrrolidin-1-yl)-3-fluoroimidazo[1,2-b]pyridazin-6-yl)pyrimidine-2,4(1H,3H)-dione]
EC50 (CD73 [1]): 33.3 nM | IC50 (CD73 [2]): 7.27 nM

CC1(C(F)(F)F)CCN(c2cc(-c3c[nH]c(=O)[nH]c3=O)nn3ccnc23)C1 (centres unmarked) [Example 185, 5-[8-[3-methyl-3-(trifluoromethyl)pyrrolidin-1-yl]imidazo[1,2-b]pyridazin-6-yl]-1H-pyrimidine-2,4-dione]
EC50 (CD73 [1]): 57.4 nM | IC50 (CD73 [2]): 13.5 nM

C[C@@]1(F)CCN(c2cc(-c3c[nH]c(=O)[nH]c3=O)nn3ccnc23)C1 [Example 186, 5-[8-[(3R)-3-fluoro-3-methyl-pyrrolidin-1-yl]imidazo[1,2-b]pyridazin-6-yl]-1H-pyrimidine-2,4-dione]
EC50 (CD73 [1]): 22.3 nM | IC50 (CD73 [2]): 7.57 nM

O=c1[nH]cc(-c2cc(N3CC[C@@H](OC(F)(F)F)C3)c3nccn3n2)c(=O)[nH]1 [Example 187, 5-[8-[(3R)-3-(trifluoromethoxy)pyrrolidin-1-yl]imidazo[1,2-b]pyridazin-6-yl]-1H-pyrimidine-2,4-dione]
EC50 (CD73 [1]): 12.6 nM | IC50 (CD73 [2]): 2.76 nM

COCC1(F)CCN(c2cc(-c3c[nH]c(=O)[nH]c3=O)nn3ccnc23)C1 (centres unmarked) [Example 188, 5-[8-[3-fluoro-3-(methoxymethyl)pyrrolidin-1-yl]imidazo[1,2-b]pyridazin-6-yl]-1H-pyrimidine-2,4-dione]
EC50 (CD73 [1]): 62.5 nM | IC50 (CD73 [2]): 17.5 nM

COC1(C(F)(F)F)CCN(c2cc(-c3c[nH]c(=O)[nH]c3=O)nn3ccnc23)C1 (centres unmarked) [Example 189, 5-[8-[3-methoxy-3-(trifluoromethyl)pyrrolidin-1-yl]imidazo[1,2-b]pyridazin-6-yl]-1H-pyrimidine-2,4-dione]
EC50 (CD73 [1]): 49 nM | IC50 (CD73 [2]): 18.1 nM

O=c1[nH]cc(-c2cc(N3CCC4(CC4)C3)c3nccn3n2)c(=O)[nH]1 [Example 190, 5-[8-(5-azaspiro[2.4]heptan-5-yl)imidazo[1,2-b]pyridazin-6-yl]-1H-pyrimidine-2,4-dione]
EC50 (CD73 [1]): 12.8 nM | IC50 (CD73 [2]): 3.05 nM

C[C@]1(F)CCN(c2cc(-c3c[nH]c(=O)[nH]c3=O)nn3ccnc23)C1 [Example 191, 5-[8-[(3S)-3-fluoro-3-methyl-pyrrolidin-1-yl]imidazo[1,2-b]pyridazin-6-yl]-1H-pyrimidine-2,4-dione]
EC50 (CD73 [1]): 45.8 nM | IC50 (CD73 [2]): 21.8 nM

C[C@@H]1CN(c2cc(-c3c[nH]c(=O)[nH]c3=O)nn3ccnc23)C[C@H]1C(F)(F)F [Example 193, 5-[8-[(3S,4S)-3-methyl-4-(trifluoromethyl)pyrrolidin-1-yl]imidazo[1,2-b]pyridazin-6-yl]-1H-pyrimidine-2,4-dione]
EC50 (CD73 [1]): 682 nM | IC50 (CD73 [2]): 151 nM

COc1ccc(C2CN(c3cc(-c4c[nH]c(=O)[nH]c4=O)nn4ccnc34)CC2(F)F)cc1 (centres unmarked) [Example 194, 5-[8-[3,3-difluoro-4-(4-methoxyphenyl)pyrrolidin-1-yl]imidazo[1,2-b]pyridazin-6-yl]-1H-pyrimidine-2,4-dione]
EC50 (CD73 [1]): 469 nM | IC50 (CD73 [2]): 3.32 nM

N#CC1(F)CCN(c2cc(-c3c[nH]c(=O)[nH]c3=O)nn3ccnc23)C1 (centres unmarked) [Example 195, 1-[6-(2,4-dioxo-1H-pyrimidin-5-yl)imidazo[1,2-b]pyridazin-8-yl]-3-fluoro-pyrrolidine-3-carbonitrile]
EC50 (CD73 [1]): 218 nM | IC50 (CD73 [2]): 62.9 nM

O=c1[nH]cc(-c2cc(N3CC[C@H](OC(F)(F)F)C3)c3nccn3n2)c(=O)[nH]1 [Example 196, 5-[8-[(3S)-3-(trifluoromethoxy)pyrrolidin-1-yl]imidazo[1,2-b]pyridazin-6-yl]-1H-pyrimidine-2,4-dione]
EC50 (CD73 [1]): 243 nM | IC50 (CD73 [2]): 98.6 nM

O=c1[nH]cc(-c2cc(N3C[C@H](OC(F)F)C(F)(F)C3)c3nccn3n2)c(=O)[nH]1 [Example 201, 5-[8-[(4S)-4-(difluoromethoxy)-3,3-difluoro-pyrrolidin-1-yl]imidazo[1,2-b]pyridazin-6-yl]-1H-pyrimidine-2,4-dione]
EC50 (CD73 [1]): 6.39 nM | IC50 (CD73 [2]): 1.11 nM

O=c1[nH]cc(-c2cc(N3CC(OC(F)F)C(F)(F)C3)c3nccn3n2)c(=O)[nH]1 (centres unmarked) [Example 202, 5-[8-[4-(difluoromethoxy)-3,3-difluoro-pyrrolidin-1-yl]imidazo[1,2-b]pyridazin-6-yl]-1H-pyrimidine-2,4-dione]
EC50 (CD73 [1]): 4.25 nM | IC50 (CD73 [2]): 1.04 nM

COc1ncc(-c2cc(N3CC(OCC(F)(F)F)C(F)(F)C3)c3nccn3n2)c(OC)n1 (centres unmarked) [Example 203, 8-[3,3-difluoro-4-(2,2,2-trifluoroethoxy)pyrrolidin-1-yl]-6-(2,4-dimethoxypyrimidin-5-yl)imidazo[1,2-b]pyridazine]
EC50 (CD73 [1]): 10.3 nM | IC50 (CD73 [2]): 3.03 nM
